Reference: patent US11253508B2, “PPARy agonist for treatment of progressive supranuclear palsy” (Coherus Biosciences, Inc., priority 2017, dated 2022)

Tests used:
[1] = test system: subjects with Relapsing Remitting Multiple Sclerosis (RRMS); experiment: 6-month placebo-controlled MRI study in Relapsing Remitting Multiple Sclerosis (CE lesions, T2 lesions, brain volume); type: in vivo, human; conditions: for cumulative CE lesions / reduction of CE lesion burden vs. placebo / cumulative CE lesions, LSMean: over 6 months; for cumulative CE lesions: complete case analysis, placebo 7.8; for cumulative CE lesions, LSMean: placebo LSMean 6.49
Experimental: 227 treatment-naive adult subjects (mean age 31 [range 18-50]; 65% female) were randomized into one of three arms: oral CHS-131 at 3 mg (n=76); oral CHS-131 at 1 mg (n=76); placebo (n=75), at 21 sites in Russia. 97% completed Part 1. Inclusion criteria: Relapsing Remitting Multiple Sclerosis (RRMS) for ≤3 years, ≥1 gadolinium-positive lesion within 1-year of enrollment, and an EDSS≤6 at screening. The patients underwent monthly MRI examinations with contrast to identify new inflammatory lesions. All […] were read blinded at the Buffalo Neuroimaging Center (Buffalo, N.Y.). In addition to CE lesions the images were scored for cumulative new/enlarged T2 lesions, and serial cortical and whole brain volumetric analysis.

adiponectin [2] = experiment: 24-week randomized, double-blind, placebo-controlled study: serum adiponectin levels in subjects with type 2 diabetes; type: in vivo, human; conditions: for Mean Change in adiponectin from baseline to Week 24: LOCF; for Mean Change in adiponectin from baseline to Week 24 / Mean Adiponectin, Week 24 / Mean Adiponectin, Week 0: type 2 diabetes, serum; for Mean Adiponectin, Week 0: baseline (Week 0)
Experimental: A randomized, double-blind, placebo-controlled, 24-week study was conducted in which adiponectin levels were measured. […] 367 subjects with type 2 diabetes (TD2)—a disease in which patient adiponectin levels are reduced—were randomly assigned to receive either 0.5, 1, 2 or 3 milligrams (“mg”) of INT131 besylate, 45 mg of pioglitazone or placebo daily for 24 weeks. To measure adiponectin levels blood was drawn at Weeks 0, 2, 6, 12 and 24.
At baseline (Week 0) mean adiponectin levels were 1.94 micrograms per milliliter (“μg/mL”). The mean adiponectin levels at baseline and Week 24, and the mean change in adiponectin levels from baseline (Week 0) to Week 24 are disclosed in Table 1, below. The standard deviation for samples tested in each group is listed in (parenthesis). Mean baseline adiponectin values were similar for the treatment groups.

[3] = in words; cited from earlier work
[4] = subjects taking INT131 vs pioglitazone; DePaoli et al. Diabetes Care 2014; cited from earlier work
HbA1c [5] = conditions: DePaoli et al. Diabetes Care 2014; cited from earlier work
adiponectin [6] = experiment: 14-day study of serum adiponectin levels in healthy subjects; type: in vivo, human
Experimental: A study was conducted to determine the effect of INT131 on serum adiponectin levels. Thirty healthy subjects were randomly selected to receive either placebo, 0.1 mg INT131, 1 mg INT131 or 4 mg INT131 daily for 14 days. To measure adiponectin levels blood was drawn at Days 1, 4, 8 and 14.

HbA1c [7] = experiment: 24-week randomized, double-blind, placebo-controlled study: HbA1c levels in subjects with type 2 diabetes; type: in vivo, human; conditions: 24 weeks

O=S(=O)(Nc1cc(Cl)c(Oc2cnc3ccccc3c2)c(Cl)c1)c1ccc(Cl)cc1Cl [INT131]
cumulative CE lesions ([1]; 1 mg oral): 7.6 | reduction of CE lesion burden vs. placebo ([1]; 1 mg oral, p=ns, RRMS): 21% | cumulative CE lesions, LSMean ([1]; 1 mg oral): 5.15 | reduction of new/enlarged T2 lesions compared to placebo ([1]; 1 mg, p=ns, RRMS): 14% | cumulative CE lesions ([1]; 3 mg daily oral): 4.2 lesions | reduction of CE lesion burden vs. placebo ([1]; 3 mg daily oral, p=0.003, RRMS): 52% | cumulative CE lesions, LSMean ([1]; 3 mg daily oral): 3.10 | less cortical volume loss compared to placebo ([1]; 3 mg daily, 6 months, RRMS): 34.2% | less whole brain volume loss compared to placebo ([1]; 3 mg daily, 6 months, RRMS): 50% | reduction of new/enlarged T2 lesions compared to placebo ([1]; 3 mg, p=0.0767, RRMS): 30% | Mean Change in adiponectin from baseline to Week 24 (adiponectin [2]; 0.5 mg daily): 0.56 µg/mL | Mean Change in adiponectin from baseline to Week 24 (adiponectin [2]; 1 mg daily): 1.28 µg/mL | adiponectin treatment comparison with placebo (adiponectin [2]; 1 mg, 2 mg, and 3 mg doses, p≤0.0109): statistically significant | Mean Change in adiponectin from baseline to Week 24 (adiponectin [2]; 2 mg daily): 3.27 µg/mL | Mean Change in adiponectin from baseline to Week 24 (adiponectin [2]; 3 mg daily): 3.83 µg/mL | upregulation of serum adiponectin levels compared with pioglitazone (adiponectin [2]; 2 or 3 mg INT131 vs at least 22 times the amount of pioglitazone): greater upregulation | Mean Adiponectin, Week 24 (adiponectin [2]; 0.5 mg daily): 2.28 µg/mL | Mean Adiponectin, Week 24 (adiponectin [2]; 1 mg daily): 3.15 µg/mL | Mean Adiponectin, Week 24 (adiponectin [2]; 2 mg daily): 5.14 µg/mL | Mean Adiponectin, Week 24 (adiponectin [2]; 3 mg daily): 5.83 µg/mL | Mean Adiponectin, Week 0 (adiponectin [2]; 0.5 mg INT131 besylate daily group): 1.73 µg/mL | Mean Adiponectin, Week 0 (adiponectin [2]; 1 mg INT131 besylate daily group): 1.87 µg/mL | Mean Adiponectin, Week 0 (adiponectin [2]; 2 mg INT131 besylate daily group): 1.87 µg/mL | Mean Adiponectin, Week 0 (adiponectin [2]; 3 mg INT131 besylate daily group): 2.00 µg/mL | crossing of the blood brain barrier [3]: readily crosses the blood brain barrier | side effects versus pioglitazone [4]: less edema, weight gain, and hemodilution | efficacy in reducing HbA1c levels versus 45 mg of pioglitazone (HbA1c [5]): equally efficacious | change in serum adiponectin levels Day 1 to Day 14 and over placebo (adiponectin [6]; 0.1 mg daily for 14 days): no significant change | change in serum adiponectin levels over placebo and from Day 1 to Day 14 (adiponectin [6]; 1 mg or 4 mg daily for 14 days): significant change | reduction of HbA1c levels as compared to placebo (HbA1c [7]; 1, 2, and 3 mg doses daily): statistically significant reduction | reduction of HbA1c levels compared with 45 mg of pioglitazone (HbA1c [7]; 2 and 3 mg doses daily): at least as well as 45 mg of pioglitazone

CCc1ccc(CCOc2ccc(CC3SC(=O)NC3=O)cc2)nc1 (stereo not shown) [Pioglitazone, pioglitazone, reference compound]
Mean Change in adiponectin from baseline to Week 24 (adiponectin [2]; 45 mg daily): 2.96 µg/mL | Mean Adiponectin, Week 24 (adiponectin [2]; 45 mg daily): 5.28 µg/mL | Mean Adiponectin, Week 0 (adiponectin [2]; 45 mg pioglitazone daily group): 2.32 µg/mL
